# Measurements published in patent US4840658A, “Algicidal composition” (Sumitomo Chemical Company, Limited, priority 1986, dated 1989).
# Structures can show the parent of a compound that is named as a salt. Where two headings read alike, the source gives them in different places.
# Tests used:
# Heterosigma akashiwo [1] = assay: Effect of unsaturated higher fatty acids on viability of Heterosigma akashiwo (cytolysis); type: cell-based; conditions: 0.5 h
# Procedure: Effect of the several unsaturated higher fatty acids on viability of Heterosigma akashiwo.
# (§1) Heterosigma akashiwo was incubated in PES medium under 14 hr photoperiod (3000 lux) condition at 20° C. The effects of test compounds were examined on the plankton at exponential growth phase and the medium at the phase generally contained 7×10^4 cells/ml.
# (§2) The unsaturated higher fatty acid was accurately weighed and dissolved in benzene. An aliquot of the solution was transferred in a 10 ml volumetric flask. The benzene was removed in vacuo and the residue was dissolved in 0.2 ml of ethanol. A PES medium was added bit by bit to make a 10 ml solution.
# (§3) Each of 1 ml of the plankton medium was transferred to the wells of a multi-dish at the cell number of 7×10^4. After good conditions of the plankton were confirmed under an inverted microscope, 1 ml of graded levels of the test solution was mixed. At specified intervals, morphological examination was conducted under the microscope, and effect concentration (EC100 ) was defined as the minimum concentration at which all of the plankton tested were cytolyzed 30 min after introduction of a test material.
# [2] = system: Killifish (Oryzias latipes); assay: Acute toxicity of unsaturated higher fatty acids to killifish; type: in vivo; conditions: adult killifish, 48 hr, 25° C.
# Procedure: Acute toxicity of the several unsaturated higher fatty acids.
# Killifish (Oryzias latipes) at adult stage were acclimated to laboratory conditions in dechlorinated water. Fish were withheld from food for 24 hr prior to the test.
# Graded levels of the compounds in 0.5 ml ethanol were added to glass vessels, and then mixed with 100 ml of dechlorinated fresh water. Five fish were introduced to the vessel and maintained for 48 hr at 25° C.
# As a solvent control, 0.5% ethanol solution was used.
# Tetraselmis cordiformis = assay: Effects of OTA on viability of plankton species; type: cell-based; parameters: key: +: 100% cytolysis of planktons after 2 hr; ±: No cytolysis but no movement; -: No effect
# Procedure: as §1, §2, §3
# (§4) Effect of 6Z, 9Z, 12Z, 15Z-octadecateraeonic acid (OTA) on viability of several plankton species.
# (§5) The test system was the same as in Experiment 1, except test concentration of 5 and 25 ppm and test duration of 48 hr.
# [3] = system: Cricosphaera roscoffensis; assay: Effects of OTA on viability of plankton species; type: cell-based; parameters: key: +: 100% cytolysis of planktons after 2 hr; ±: No cytolysis but no movement; -: No effect
# Procedure: as §1, §2, §3, §4, §5
# [4] = system: marine dinoflagellates (Dinophyceae); assay: Algicidal activity against marine dinoflagellates; type: cell-based
# Chattonella antiqua = assay: Effects of OTA on viability of plankton species; type: cell-based
# Procedure: as §1, §2, §3, §4, §5
# Chlamydomonas sp. = assay: Effects of OTA on viability of plankton species; type: cell-based
# Procedure: as §1, §2, §3, §4, §5
# Olisthodiscus luteus = assay: Effects of OTA on viability of plankton species; type: cell-based
# Procedure: as §1, §2, §3, §4, §5
# Hafniomonas reticulata = assay: Effects of OTA on viability of plankton species; type: cell-based
# Procedure: as §1, §2, §3, §4, §5
# Gymnodinium sanguineum = assay: Effects of OTA on viability of plankton species; type: cell-based
# Procedure: as §1, §2, §3, §4, §5
# Heterocapsa triguetra = assay: Effects of OTA on viability of plankton species; type: cell-based
# Procedure: as §1, §2, §3, §4, §5
# Oltmannsiella sp. = assay: Effects of OTA on viability of plankton species; type: cell-based
# Procedure: as §1, §2, §3, §4, §5
# Stephanopyris palmeriana = assay: Effects of OTA on viability of plankton species; type: cell-based
# Procedure: as §1, §2, §3, §4, §5
# Chattonella marina = assay: Effects of OTA on viability of plankton species; type: cell-based
# Procedure: as §1, §2, §3, §4, §5
# Heterosigma akashiwo [5] = assay: Effects of OTA on viability of plankton species; type: cell-based
# Procedure: as §1, §2, §3, §4, §5
# Cryptomonas sp. = assay: Effects of OTA on viability of plankton species; type: cell-based
# Procedure: as §1, §2, §3, §4, §5
# Pyraminonas sp. = assay: Effects of OTA on viability of plankton species; type: cell-based
# Procedure: as §1, §2, §3, §4, §5
# Chaetoceros debile = assay: Effects of OTA on viability of plankton species; type: cell-based
# Procedure: as §1, §2, §3, §4, §5
# Eutreptia sp. = assay: Effects of OTA on viability of plankton species; type: cell-based
# Procedure: as §1, §2, §3, §4, §5
# Skeletonema costatum = assay: Effects of OTA on viability of plankton species; type: cell-based
# Procedure: as §1, §2, §3, §4, §5
# Pterosperma cristatum = assay: Effects of OTA on viability of plankton species; type: cell-based
# Procedure: as §1, §2, §3, §4, §5
# Prorocentrum micans = assay: Effects of OTA on viability of plankton species; type: cell-based
# Procedure: as §1, §2, §3, §4, §5
# Nephroselmis sp. = assay: Effects of OTA on viability of plankton species; type: cell-based
# Procedure: as §1, §2, §3, §4, §5
# Gymnodinium nagasakiense = assay: Effects of OTA on viability of plankton species; type: cell-based
# Procedure: as §1, §2, §3, §4, §5
# [6] = minimum concentration at which all plankton cytolyzed 30 min after introduction, read-out: EC100
structure (smiles),measurement,setting,value
"CCC=CCC=CCC=CCC=CCC=CCCCC(=O)O [5,8, 11, 14, 17-eicosapentaenoic acid]",EC100,Heterosigma akashiwo [1]; [6],2.5 µg/mL
same,LC100,[2],> 30 ppm
same,Maximum no effect concentration,[2],< 25 ppm
"CCC=CCC=CCC=CCC=CCC=CCCCC(=O)O [Na salt of 5, 8, 11, 14, 17-eicosapentaenoic acid]",LC100,[2],> 50 ppm
same,Maximum no effect concentration,[2],< 30 ppm
"CC/C=C\C/C=C\C/C=C\C/C=C\CCCCC(=O)O [OTA, 6Z, 9Z, 12Z, 15Z-octadecatetraenoic acid]",Effect on viability,Tetraselmis cordiformis; 5 ppm,±
same,Effect on viability,Tetraselmis cordiformis; 25 ppm,±
same,Effect on viability,[3]; 5 ppm,±
same,Effect on viability,[3]; 25 ppm,±
same,algicidal activity,[4],strong algicidal activity
same,EC100,Heterosigma akashiwo [1]; [6],2.5 µg/mL
same,LC100,[2],> 25 ppm
same,Maximum no effect concentration,[2],< 20 ppm
same,Effect on viability,Chattonella antiqua; 5 ppm,+ (100% cytolysis of planktons after 2 hr)
same,Effect on viability,Chattonella antiqua; 25 ppm,+ (100% cytolysis of planktons after 2 hr)
same,Effect on viability,Chlamydomonas sp.; 5 ppm,+ (100% cytolysis of planktons after 2 hr)
same,Effect on viability,Chlamydomonas sp.; 25 ppm,+ (100% cytolysis of planktons after 2 hr)
same,Effect on viability,Olisthodiscus luteus; 5 ppm,+ (100% cytolysis of planktons after 2 hr)
same,Effect on viability,Olisthodiscus luteus; 25 ppm,+ (100% cytolysis of planktons after 2 hr)
same,Effect on viability,Hafniomonas reticulata; 5 ppm,+ (100% cytolysis of planktons after 2 hr)
same,Effect on viability,Hafniomonas reticulata; 25 ppm,+ (100% cytolysis of planktons after 2 hr)
same,Effect on viability,Gymnodinium sanguineum; 5 ppm,+ (100% cytolysis of planktons after 2 hr)
same,Effect on viability,Gymnodinium sanguineum; 25 ppm,+ (100% cytolysis of planktons after 2 hr)
same,Effect on viability,Heterocapsa triguetra; 5 ppm,+ (100% cytolysis of planktons after 2 hr)
same,Effect on viability,Heterocapsa triguetra; 25 ppm,+ (100% cytolysis of planktons after 2 hr)
same,Effect on viability,Oltmannsiella sp.; 5 ppm,+ (100% cytolysis of planktons after 2 hr)
same,Effect on viability,Oltmannsiella sp.; 25 ppm,+ (100% cytolysis of planktons after 2 hr)
same,Effect on viability,Stephanopyris palmeriana; 5 ppm,+ (100% cytolysis of planktons after 2 hr)
same,Effect on viability,Stephanopyris palmeriana; 25 ppm,+ (100% cytolysis of planktons after 2 hr)
same,Effect on viability,Chattonella marina; 5 ppm,+ (100% cytolysis of planktons after 2 hr)
same,Effect on viability,Chattonella marina; 25 ppm,+ (100% cytolysis of planktons after 2 hr)
same,Effect on viability,Heterosigma akashiwo [5]; 5 ppm,+ (100% cytolysis of planktons after 2 hr)
same,Effect on viability,Heterosigma akashiwo [5]; 25 ppm,+ (100% cytolysis of planktons after 2 hr)
same,Effect on viability,Cryptomonas sp.; 5 ppm,+ (100% cytolysis of planktons after 2 hr)
same,Effect on viability,Cryptomonas sp.; 25 ppm,+ (100% cytolysis of planktons after 2 hr)
same,Effect on viability,Pyraminonas sp.; 5 ppm,+ (100% cytolysis of planktons after 2 hr)
same,Effect on viability,Pyraminonas sp.; 25 ppm,+ (100% cytolysis of planktons after 2 hr)
same,Effect on viability,Chaetoceros debile; 5 ppm,+ (100% cytolysis of planktons after 2 hr)
same,Effect on viability,Chaetoceros debile; 25 ppm,+ (100% cytolysis of planktons after 2 hr)
same,Effect on viability,Eutreptia sp.; 5 ppm,+ (100% cytolysis of planktons after 2 hr)
same,Effect on viability,Eutreptia sp.; 25 ppm,+ (100% cytolysis of planktons after 2 hr)
same,Effect on viability,Skeletonema costatum; 5 ppm,+ (100% cytolysis of planktons after 2 hr)
same,Effect on viability,Skeletonema costatum; 25 ppm,+ (100% cytolysis of planktons after 2 hr)
same,Effect on viability,Pterosperma cristatum; 5 ppm,+ (100% cytolysis of planktons after 2 hr)
same,Effect on viability,Pterosperma cristatum; 25 ppm,+ (100% cytolysis of planktons after 2 hr)
same,Effect on viability,Prorocentrum micans; 5 ppm,+ (100% cytolysis of planktons after 2 hr)
same,Effect on viability,Prorocentrum micans; 25 ppm,+ (100% cytolysis of planktons after 2 hr)
same,Effect on viability,Nephroselmis sp.; 5 ppm,+ (100% cytolysis of planktons after 2 hr)
same,Effect on viability,Nephroselmis sp.; 25 ppm,+ (100% cytolysis of planktons after 2 hr)
same,Effect on viability,Gymnodinium nagasakiense; 5 ppm,+ (100% cytolysis of planktons after 2 hr)
same,Effect on viability,Gymnodinium nagasakiense; 25 ppm,+ (100% cytolysis of planktons after 2 hr)
CCCCC/C=C\C/C=C\C/C=C\C/C=C\CCCC(=O)O [arachidonic acid],EC100,Heterosigma akashiwo [1],2.5 µg/mL
CCCCC/C=C\C/C=C\CCCCCCCC(=O)O [linoleic acid],EC100,Heterosigma akashiwo [1]; [6],25 µg/mL
CCCCCCCC/C=C\CCCCCCCC(=O)O [oleic acid],EC100,Heterosigma akashiwo [1],70 to 80 µg/mL
CC/C=C\C/C=C\C/C=C\CCCCCCCC(=O)[O-].[Na+] [sodium linolenate],LC100,[2],> 150 ppm
same,Maximum no effect concentration,[2],< 100 ppm
CCCCC/C=C\C/C=C\C/C=C\CCCCC(=O)O [γ-linolenic acid],EC100,Heterosigma akashiwo [1]; [6],25 µg/mL
same,LC100,[2],> 50 ppm
same,Maximum no effect concentration,[2],< 40 ppm
